Legend:
Format in all cases: cell-based
PC3 and RWPE1 cells [1] = assay: Immunofluorescence analysis of cells treated with MLN8237; details: MLN8237 0.01 uM, 24 hr
PC3 cells [2] = assay: Western blot analysis of nuclear extracts for phospho-Histone H3; details: MLN8237 0.01 uM, nuclear extracts from PC3 cells
Procedure: (§1) FIG. 8. […] Western blot analysis of nuclear extracts from PC3 cells treated with MLN8237 (0.01 uM). Y-tubulin staining was used as the loading control. […] PC3 and RWPE1 cells were treated with MLN8237 (0.01 uM) MLN8237 for 24, 48, and 72 hr and cell viability was measured by MTT Assay.

PC3 cells [3] = assay: Cell proliferation by MTS assay, MLN8237 with LIMK1 shRNA or control shRNA
Procedure: 10 cm dishes were transiently transfected with 6 ug of LIMK1 shRNA or control shRNA. 24 hrs post transfection, untransfected PC3 cells along with the transfected PC3 cells were seeded in 96 well plates in triplicate (5,000 cells/well). 14 hrs after seeding, media was changed to MLN8237 containing media, at concentrations of 0.001 uM, 0.01 uM, and 0.1 uM. After 24 and 48 hours of inhibitor treatment, cell proliferation was measured using MTS assay. MTS reagent was added to each well and allowed to incubate for 3 hrs at 37° C. before reading absorbances. Absorbances were compared against controls.

PC3 and RWPE1 cells [4] = assay: Cell viability by MTT assay; details: MLN8237 0.01 uM, 24, 48 and 72 hr
Procedure: as §1

PC3 cells [5] = assay: Western blot of LIMK1 and pAurKA after LIMK1 shRNA transfection; details: LIMK1 shRNA versus control shRNA
Procedure: FIG. 6 PC3 cells were transfected with LIMK1 shRNA or control shRNA and the levels of LIMK1 and pAurKA were detected by western blotting using anti-LIMK1 or anti phospho-AurKA antibodies. GAPDH was used as the loading control. The ratio of pAurKA to GAPDH levels was determined by densitometry (left panel).

PC3 cells [6] = assay: Immunofluorescence of spindle structure after LIMK1 shRNA transfection, spindle abnormalities counted
Description: FIG. 7 A: PC3 cells were transfected with either LIMK1 or control shRNA. In control shRNA transfected cells, distinct localization of pAurKA (green) at the spindle poles (red) could be noted. […] PC3 cells were transfected with either LIMK1 or control shRNA and spindle abnormalities were quantified by counting 50 cells per treatment.

Molecule	localization of pAurKA and spindle morphology (alpha-tubulin) (PC3 and RWPE1 cells [1])	localization of pLIMK1 and centrin (PC3 and RWPE1 cells [1])	levels of phospho-Histone H3 (mitotic arrest) (PC3 cells [2])	sensitivity of untransfected PC3 cells to MLN8237 (MTS) (PC3 cells [3]; 0.001, 0.01 and 0.1 uM, 24 and 48 hr)	cell survival (cell viability, MTT) (PC3 and RWPE1 cells [4])	number of viable cells compared to control shRNA (PC3 cells [3]; 0.001 uM MLN8237, 48 hrs, PC3 cells) [%]	number of viable cells compared to control shRNA (PC3 cells [3]; 0.1 uM MLN8237, 48 hrs, PC3 cells) [%]	sensitivity to MLN8237 versus control shRNA transfected cells (PC3 cells [3]; PC3 cells, MLN8237 0.001-0.1 uM)	sensitivity to AurKA inhibitor versus untransfected PC3 cells treated only with AurKA inhibitor (PC3 cells [3]; normalised to untransfected PC3 cells treated with vehicle (DMSO), 24 and 48 hr)	level of phosphorylated AurKA (PC3 cells [5])	number of abnormal spindles (PC3 cells [6]; 50 cells counted per treatment)	spindle structure (alpha-tubulin staining) (PC3 cells [6]; LIMK1 shRNA versus control shRNA)
COc1cc(Nc2ncc3c(n2)-c2ccc(Cl)cc2C(c2c(F)cccc2OC)=NC3)ccc1C(=O)O [MLN8237]	mislocalization of pAurKA (green) and improper spindle morphology	diffused staining and mislocalization of pLIMK1 (green) and centrin (red) in the nucleus	Increased the Levels of phospho-Histone H3	most sensitive to 0.1 uM MLN8237 at 48 hrs	Decreased Cell Survival							
AAGGACAAGAGGCTCAACTTCATCACTGA (listed as DNA, chemistry not given here) [LIMK1 shRNA, interfering RNA (shRNA) targeting LIMK1]						75	83	more sensitivity to MLN8237	increased the sensitivity of the cells to AurKA inhibitor at all concentrations	decreased the level of phosphorylated AurkA	increased the number of abnormal spindles	disorganized spindle structure

From US8911725B2, “Co-targeting of aurora A kinase and LIM kinase 1 for cancer therapy” (University of Central Florida Research Foundation, Inc., priority 2010, dated 2014)
